In ChEMBL document CHEMBL4804281, “STK4 inhibitors for treatment of hematologic malignancies” (2020):
Blank lines part the entries; values can stand above or below the compound they belong to. Calls of active or inactive are those of the source. The calls are words filed in the database; no cut-off is given here.

Tests used:
[1] = biological target: Mitogen-activated protein kinase kinase kinase kinase 3 (Homo sapiens) (UniProt Q8IVH8); assay: Inhibition of KHS2 in human NCI-H929 cells at 10 uM by mass spectroscopic analysis relative to control; format: cell-based
[2] = biological target: Mitogen-activated protein kinase 1 (Homo sapiens) (UniProt P28482); assay: Inhibition of ERK2 in human NCI-H929 cells at 10 uM by mass spectroscopic analysis relative to control; format: cell-based
[3] = tested on: MM1.S; assay: Induction of apoptosis in human MM1.S cells assessed as necrotic cells measured after 48 hrs by annevxinV/FITC-propidium iodide staining based flow cytometry (reference value: 0.19 %); format: functional
[4] = tested on: NCI-H929; assay: Induction of apoptosis in human NCI-H929 cells assessed as induction of PARP cleavage at 1 uM measured after 24 hrs by Western blot analysis; format: functional, cell-based
[5] = tested on: NCI-H929; assay: Upregulation of YAP1 protein level in human NCI-H929 cells at 3 to 10 uM measured after 72 hrs by Western blot analysis; format: functional, cell-based; settings: dose 3-10 µM
[6] = biological target: Mitogen-activated protein kinase kinase kinase 2 (Homo sapiens) (UniProt Q9Y2U5); assay: Inhibition of MAP3K2 in human NCI-H929 cells at 10 uM by mass spectroscopic analysis relative to control; format: cell-based
[7] = tested on: MM1.S; assay: Induction of apoptosis in human MM1.S cells assessed as late apoptotic cells measured after 48 hrs by annevxinV/FITC-propidium iodide staining based flow cytometry (reference value: 2.09 %); format: functional
[8] = tested on: NCI-H929; assay: Upregulation of YAP1 protein level in human NCI-H929 cells at 1 uM measured after 24 hrs by Western blot analysis; format: functional, cell-based
[9] = tested on: NCI-H929; assay: Upregulation of PUMA protein level in human NCI-H929 cells at 1 uM measured after 24 hrs by Western blot analysis; format: functional, cell-based
[10] = tested on: NCI-H929; assay: Upregulation of BAX protein level in human NCI-H929 cells at 1 uM measured after 24 hrs by Western blot analysis; format: functional, cell-based
[11] = tested on: MM1.S; assay: Upregulation of YAP1 protein level in human MM1.S cells at 3 to 10 uM measured after 72 hrs by Western blot analysis; format: functional, cell-based; settings: dose 3-10 µM
[12] = biological target: eIF-2-alpha kinase GCN2 (Homo sapiens) (UniProt Q9P2K8); assay: Inhibition of GCN2 domain 2 in human NCI-H929 cells at 10 uM by mass spectroscopic analysis relative to control; format: cell-based
[13] = biological target: Mitogen-activated protein kinase kinase kinase 11 (Homo sapiens) (UniProt Q16584); assay: Inhibition of MLK3 in human NCI-H929 cells at 10 uM by mass spectroscopic analysis relative to control; format: cell-based
[14] = biological target: Serine/threonine-protein kinase Nek9 (Homo sapiens) (UniProt Q8TD19); assay: Inhibition of NEK9 in human NCI-H929 cells at 10 uM by mass spectroscopic analysis relative to control; format: cell-based
[15] = biological target: Glycogen synthase kinase-3 beta (Homo sapiens) (UniProt P49841); assay: Inhibition of GSK3B in human NCI-H929 cells at 10 uM by mass spectroscopic analysis relative to control; format: cell-based
[16] = biological target: Cyclin-G-associated kinase (Homo sapiens) (UniProt O14976); assay: Inhibition of GAK in human NCI-H929 cells at 10 uM by mass spectroscopic analysis relative to control; format: cell-based
[17] = biological target: Calcium/calmodulin-dependent protein kinase type II subunit gamma (Homo sapiens) (UniProt Q13555); assay: Inhibition of CAMK2G in human NCI-H929 cells at 10 uM by mass spectroscopic analysis relative to control; format: cell-based
[18] = biological target: 1-phosphatidylinositol 3-phosphate 5-kinase (Homo sapiens) (UniProt Q9Y2I7); assay: Inhibition of PIP5K3 in human NCI-H929 cells at 10 uM by mass spectroscopic analysis relative to control; format: cell-based
[19] = biological target: Mitogen-activated protein kinase kinase kinase 1 (Homo sapiens) (UniProt Q13233); assay: Inhibition of MAP3K1 in human NCI-H929 cells at 10 uM by mass spectroscopic analysis relative to control; format: cell-based
[20] = biological target: T1, Serine/threonine-protein kinase 3 (Homo sapiens) (UniProt Q13188); assay: Inhibition of MST2 in human NCI-H929 cells at 10 uM by mass spectroscopic analysis relative to control; format: cell-based
T1 sequence (whole entry): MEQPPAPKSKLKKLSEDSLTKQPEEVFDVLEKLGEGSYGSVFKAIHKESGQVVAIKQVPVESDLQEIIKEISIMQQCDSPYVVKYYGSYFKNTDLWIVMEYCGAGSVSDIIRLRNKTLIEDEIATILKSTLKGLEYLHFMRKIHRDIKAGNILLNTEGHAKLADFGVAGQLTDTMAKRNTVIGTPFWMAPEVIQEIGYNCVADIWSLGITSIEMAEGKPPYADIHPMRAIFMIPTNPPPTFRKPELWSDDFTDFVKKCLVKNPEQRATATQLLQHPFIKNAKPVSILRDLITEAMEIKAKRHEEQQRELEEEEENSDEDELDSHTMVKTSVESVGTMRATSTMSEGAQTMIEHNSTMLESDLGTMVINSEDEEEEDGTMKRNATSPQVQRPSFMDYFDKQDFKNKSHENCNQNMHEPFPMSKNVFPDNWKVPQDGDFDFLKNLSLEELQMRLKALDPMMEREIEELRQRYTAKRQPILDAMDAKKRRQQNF

[21] = biological target: Casein kinase I isoform alpha (Homo sapiens) (UniProt P48729); assay: Inhibition of CK1a in human NCI-H929 cells at 10 uM by mass spectroscopic analysis relative to control; format: cell-based
[22] = biological target: T2, Serine/threonine-protein kinase 4 (Homo sapiens) (UniProt Q13043); assay: Inhibition of MST1 in human NCI-H929 cells at 10 uM by mass spectroscopic analysis relative to control; format: cell-based
T2 sequence (whole entry): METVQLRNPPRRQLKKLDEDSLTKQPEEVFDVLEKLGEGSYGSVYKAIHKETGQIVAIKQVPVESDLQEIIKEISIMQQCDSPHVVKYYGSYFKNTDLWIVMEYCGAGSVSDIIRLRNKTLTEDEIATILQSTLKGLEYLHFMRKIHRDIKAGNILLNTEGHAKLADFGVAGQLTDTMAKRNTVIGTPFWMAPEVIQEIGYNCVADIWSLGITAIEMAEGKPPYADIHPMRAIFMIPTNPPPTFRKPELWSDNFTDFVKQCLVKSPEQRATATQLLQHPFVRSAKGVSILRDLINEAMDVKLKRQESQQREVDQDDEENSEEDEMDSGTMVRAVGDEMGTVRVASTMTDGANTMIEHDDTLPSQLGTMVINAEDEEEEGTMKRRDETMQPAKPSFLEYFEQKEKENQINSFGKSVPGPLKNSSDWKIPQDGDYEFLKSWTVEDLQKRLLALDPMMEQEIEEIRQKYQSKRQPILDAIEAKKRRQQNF

[23] = biological target: Mitogen-activated protein kinase kinase kinase 21 (Homo sapiens) (UniProt Q5TCX8); assay: Inhibition of MLK4 in human NCI-H929 cells at 10 uM by mass spectroscopic analysis relative to control; format: cell-based
[24] = biological target: Maternal embryonic leucine zipper kinase (Homo sapiens) (UniProt Q14680); assay: Inhibition of MELK in human NCI-H929 cells at 10 uM by mass spectroscopic analysis relative to control; format: cell-based
Maternal embryonic leucine zipper kinase (Homo sapiens), sequence (Q14680 whole entry, looked up): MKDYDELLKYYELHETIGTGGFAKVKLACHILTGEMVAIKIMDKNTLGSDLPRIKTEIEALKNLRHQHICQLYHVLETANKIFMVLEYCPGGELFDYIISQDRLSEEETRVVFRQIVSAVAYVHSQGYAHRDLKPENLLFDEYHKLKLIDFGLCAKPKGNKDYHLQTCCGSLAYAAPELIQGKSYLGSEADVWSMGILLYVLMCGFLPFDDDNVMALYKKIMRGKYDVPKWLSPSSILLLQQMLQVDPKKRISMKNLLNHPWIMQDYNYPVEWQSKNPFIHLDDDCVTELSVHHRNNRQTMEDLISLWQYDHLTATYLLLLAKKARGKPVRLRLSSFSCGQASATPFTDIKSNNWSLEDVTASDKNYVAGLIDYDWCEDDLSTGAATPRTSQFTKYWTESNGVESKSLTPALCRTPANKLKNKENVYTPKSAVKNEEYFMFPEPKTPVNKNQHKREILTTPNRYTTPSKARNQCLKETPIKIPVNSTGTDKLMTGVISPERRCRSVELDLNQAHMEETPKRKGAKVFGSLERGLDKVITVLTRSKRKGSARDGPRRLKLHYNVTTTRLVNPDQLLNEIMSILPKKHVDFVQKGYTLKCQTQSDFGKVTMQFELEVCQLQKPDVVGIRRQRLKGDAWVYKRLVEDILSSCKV

Glycogen synthase kinase-3 beta (Homo sapiens), sequence (P49841 whole entry, looked up): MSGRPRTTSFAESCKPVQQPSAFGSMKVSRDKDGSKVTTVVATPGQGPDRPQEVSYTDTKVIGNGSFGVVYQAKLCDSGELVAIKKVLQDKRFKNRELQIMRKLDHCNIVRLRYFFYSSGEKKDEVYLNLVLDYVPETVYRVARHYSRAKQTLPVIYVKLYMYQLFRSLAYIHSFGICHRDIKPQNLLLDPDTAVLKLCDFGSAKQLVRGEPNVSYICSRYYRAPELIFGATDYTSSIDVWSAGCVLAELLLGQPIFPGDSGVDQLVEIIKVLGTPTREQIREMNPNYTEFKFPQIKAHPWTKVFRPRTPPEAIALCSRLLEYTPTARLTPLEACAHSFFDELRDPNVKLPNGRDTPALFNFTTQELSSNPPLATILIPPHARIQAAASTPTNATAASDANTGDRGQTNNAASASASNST
Mitogen-activated protein kinase kinase kinase kinase 3 (Homo sapiens), sequence (Q8IVH8 whole entry): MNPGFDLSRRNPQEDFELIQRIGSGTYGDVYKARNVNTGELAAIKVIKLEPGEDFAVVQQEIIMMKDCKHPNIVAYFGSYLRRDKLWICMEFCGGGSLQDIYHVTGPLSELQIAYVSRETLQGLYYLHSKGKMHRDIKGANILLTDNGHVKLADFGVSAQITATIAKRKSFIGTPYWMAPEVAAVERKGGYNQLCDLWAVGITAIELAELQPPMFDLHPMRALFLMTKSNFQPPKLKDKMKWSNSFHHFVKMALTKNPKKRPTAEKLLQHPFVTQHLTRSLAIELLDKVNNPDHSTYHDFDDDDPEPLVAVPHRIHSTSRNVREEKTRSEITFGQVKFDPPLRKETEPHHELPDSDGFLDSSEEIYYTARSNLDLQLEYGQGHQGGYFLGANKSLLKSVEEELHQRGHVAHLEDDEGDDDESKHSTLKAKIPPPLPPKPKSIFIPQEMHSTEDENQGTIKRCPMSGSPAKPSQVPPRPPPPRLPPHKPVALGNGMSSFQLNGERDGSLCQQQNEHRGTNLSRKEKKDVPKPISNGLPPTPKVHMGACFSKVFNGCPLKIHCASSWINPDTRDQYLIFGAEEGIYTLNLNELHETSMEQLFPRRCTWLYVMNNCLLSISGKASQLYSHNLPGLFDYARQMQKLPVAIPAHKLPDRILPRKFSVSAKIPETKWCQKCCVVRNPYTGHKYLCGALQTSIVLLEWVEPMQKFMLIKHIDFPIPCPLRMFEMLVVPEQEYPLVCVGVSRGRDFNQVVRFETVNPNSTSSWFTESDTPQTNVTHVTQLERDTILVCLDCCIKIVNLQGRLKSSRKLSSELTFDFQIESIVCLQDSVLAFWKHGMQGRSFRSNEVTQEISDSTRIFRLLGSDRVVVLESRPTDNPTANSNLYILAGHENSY
Cyclin-G-associated kinase (Homo sapiens), sequence (O14976 whole entry): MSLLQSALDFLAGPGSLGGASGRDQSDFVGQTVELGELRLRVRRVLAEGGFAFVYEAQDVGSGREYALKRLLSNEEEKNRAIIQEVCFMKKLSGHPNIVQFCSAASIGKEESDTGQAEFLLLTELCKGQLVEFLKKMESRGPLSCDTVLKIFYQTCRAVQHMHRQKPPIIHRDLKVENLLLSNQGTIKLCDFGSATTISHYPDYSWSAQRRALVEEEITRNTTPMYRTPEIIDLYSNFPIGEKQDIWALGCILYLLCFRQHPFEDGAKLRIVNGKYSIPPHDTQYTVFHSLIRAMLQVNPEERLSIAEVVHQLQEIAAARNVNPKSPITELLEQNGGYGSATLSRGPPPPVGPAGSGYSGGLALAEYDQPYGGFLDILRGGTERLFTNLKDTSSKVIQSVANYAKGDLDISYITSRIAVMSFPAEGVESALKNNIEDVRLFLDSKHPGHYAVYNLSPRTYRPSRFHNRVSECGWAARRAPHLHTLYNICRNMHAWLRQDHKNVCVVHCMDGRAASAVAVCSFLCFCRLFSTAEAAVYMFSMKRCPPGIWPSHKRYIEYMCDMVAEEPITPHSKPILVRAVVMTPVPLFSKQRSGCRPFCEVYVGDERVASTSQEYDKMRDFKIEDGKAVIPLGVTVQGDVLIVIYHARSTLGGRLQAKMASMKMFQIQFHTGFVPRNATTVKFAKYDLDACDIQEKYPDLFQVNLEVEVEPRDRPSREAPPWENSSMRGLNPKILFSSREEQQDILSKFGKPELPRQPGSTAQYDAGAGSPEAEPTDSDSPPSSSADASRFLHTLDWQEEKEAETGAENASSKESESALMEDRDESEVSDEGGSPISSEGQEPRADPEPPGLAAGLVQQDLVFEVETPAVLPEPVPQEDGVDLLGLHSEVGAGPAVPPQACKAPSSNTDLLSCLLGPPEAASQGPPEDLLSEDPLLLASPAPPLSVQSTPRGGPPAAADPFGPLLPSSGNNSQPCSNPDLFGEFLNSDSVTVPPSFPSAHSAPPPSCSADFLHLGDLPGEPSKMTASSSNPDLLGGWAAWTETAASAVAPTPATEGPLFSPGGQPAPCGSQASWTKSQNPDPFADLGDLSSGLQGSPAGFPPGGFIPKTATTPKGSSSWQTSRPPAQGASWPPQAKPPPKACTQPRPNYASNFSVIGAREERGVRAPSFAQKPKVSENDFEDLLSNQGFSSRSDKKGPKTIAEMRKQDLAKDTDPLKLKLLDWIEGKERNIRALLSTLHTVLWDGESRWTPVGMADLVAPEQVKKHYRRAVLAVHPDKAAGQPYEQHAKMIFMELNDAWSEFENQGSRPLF
Mitogen-activated protein kinase kinase kinase 2 (Homo sapiens), sequence (Q9Y2U5 whole entry): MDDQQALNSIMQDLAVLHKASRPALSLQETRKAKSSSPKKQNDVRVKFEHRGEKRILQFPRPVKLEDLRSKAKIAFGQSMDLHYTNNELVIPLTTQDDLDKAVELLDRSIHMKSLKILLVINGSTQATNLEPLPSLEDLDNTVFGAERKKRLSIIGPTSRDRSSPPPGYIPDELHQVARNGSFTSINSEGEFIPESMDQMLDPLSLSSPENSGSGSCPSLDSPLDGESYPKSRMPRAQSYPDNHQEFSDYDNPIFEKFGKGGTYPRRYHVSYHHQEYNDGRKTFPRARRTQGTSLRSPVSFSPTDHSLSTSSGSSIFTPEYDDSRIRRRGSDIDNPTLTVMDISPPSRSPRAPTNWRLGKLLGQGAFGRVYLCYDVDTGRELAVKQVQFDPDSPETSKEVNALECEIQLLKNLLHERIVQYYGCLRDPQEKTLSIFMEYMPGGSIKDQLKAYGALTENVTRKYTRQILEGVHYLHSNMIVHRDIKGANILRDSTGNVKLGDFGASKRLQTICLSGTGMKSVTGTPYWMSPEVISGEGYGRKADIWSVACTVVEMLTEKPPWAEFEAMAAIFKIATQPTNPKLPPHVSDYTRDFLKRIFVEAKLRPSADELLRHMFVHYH
Mitogen-activated protein kinase kinase kinase 21 (Homo sapiens), sequence (Q5TCX8 whole entry): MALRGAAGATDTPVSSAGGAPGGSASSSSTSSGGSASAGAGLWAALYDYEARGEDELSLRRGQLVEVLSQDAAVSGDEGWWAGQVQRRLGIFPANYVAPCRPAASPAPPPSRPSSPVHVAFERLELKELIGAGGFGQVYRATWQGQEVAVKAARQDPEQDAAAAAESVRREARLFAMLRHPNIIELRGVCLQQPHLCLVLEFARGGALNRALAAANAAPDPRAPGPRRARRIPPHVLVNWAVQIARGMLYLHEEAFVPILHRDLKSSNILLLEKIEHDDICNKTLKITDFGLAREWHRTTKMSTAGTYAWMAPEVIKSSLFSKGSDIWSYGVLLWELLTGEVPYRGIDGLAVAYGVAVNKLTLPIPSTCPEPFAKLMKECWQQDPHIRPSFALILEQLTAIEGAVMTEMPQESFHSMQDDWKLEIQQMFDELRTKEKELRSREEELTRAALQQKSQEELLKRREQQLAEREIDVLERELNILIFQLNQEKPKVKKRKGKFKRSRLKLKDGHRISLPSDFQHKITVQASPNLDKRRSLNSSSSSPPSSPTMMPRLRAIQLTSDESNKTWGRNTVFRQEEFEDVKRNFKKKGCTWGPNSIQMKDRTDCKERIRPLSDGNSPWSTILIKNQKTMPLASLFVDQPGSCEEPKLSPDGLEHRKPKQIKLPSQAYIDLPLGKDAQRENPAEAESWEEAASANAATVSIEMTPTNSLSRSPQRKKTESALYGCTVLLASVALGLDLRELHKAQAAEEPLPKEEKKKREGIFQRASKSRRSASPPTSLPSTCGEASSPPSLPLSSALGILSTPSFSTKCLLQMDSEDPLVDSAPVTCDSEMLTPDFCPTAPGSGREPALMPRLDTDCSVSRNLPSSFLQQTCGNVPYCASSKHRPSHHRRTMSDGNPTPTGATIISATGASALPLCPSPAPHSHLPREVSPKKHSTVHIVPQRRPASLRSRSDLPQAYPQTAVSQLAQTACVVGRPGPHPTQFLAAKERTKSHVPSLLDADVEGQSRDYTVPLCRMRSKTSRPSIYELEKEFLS

inhibition [12]: 75%
inhibition [13]: 0%
inhibition [15]: > 90%
inhibition [16]: 50%
inhibition [17]: 75%
inhibition [18]: 0%
inhibition [19]: 0%
inhibition [20]: 0%
inhibition [21]: 75%
inhibition [22]: 0%
Compound: COc1cc(NS(=O)(=O)C2CC2)ccc1-c1cnc(N)c(-c2ccc3c(c2)CCNC3=O)c1
inhibition [14]: 50%

inhibition [23]: 50%
inhibition [24]: 50%
Compound: Nc1ncc(-c2ccc(NS(=O)(=O)C3CC3)cc2OC2CCCCC2)cc1-c1ccc2c(c1)CCNC2=O

Further lines, the compound ahead of its results:

Compound: CN(C1CC1)S(=O)(=O)c1ccc(-c2cnc(N)c(-c3ccc4c(c3)CCNC4=O)c2)c(F)c1
inhibition [1]: 50%

Compound: Nc1ncc(-c2cccc3ncsc23)cc1-c1ccc2c(c1)CCNC2=O
inhibition [2]: 50%

Compound: Nc1ncc(-c2cccc([N+](=O)[O-])c2F)cc1-c1ccc2c(c1)CCNC2=O
Activity [3]: 29.41%
Activity [4]: Active
Activity [5]: inactive
inhibition [6]: < 50%
Activity [7]: 25.05%
Activity [8]: Active
Activity [9]: Active
Activity [10]: Active
Activity [11]: inactive
